In patent US20240336594A1, “SIX-MEMBERED ARYL OR HETEROARYL AMIDES, AND COMPOSITION AND USE THEREOF” (BETTA PHARMACEUTICALS CO., LTD, priority 2021, published 2024) one finds IC50 data, which are given here for 26 molecules.

As usually defined, the IC50 is the concentration that inhibits the measured activity by half.

Some results are limits rather than exact numbers.

In this test the target is T1, MALT1 (Homo sapiens, UniProt Q9UDY8).
T1 sequence (Q9UDY8 1-824): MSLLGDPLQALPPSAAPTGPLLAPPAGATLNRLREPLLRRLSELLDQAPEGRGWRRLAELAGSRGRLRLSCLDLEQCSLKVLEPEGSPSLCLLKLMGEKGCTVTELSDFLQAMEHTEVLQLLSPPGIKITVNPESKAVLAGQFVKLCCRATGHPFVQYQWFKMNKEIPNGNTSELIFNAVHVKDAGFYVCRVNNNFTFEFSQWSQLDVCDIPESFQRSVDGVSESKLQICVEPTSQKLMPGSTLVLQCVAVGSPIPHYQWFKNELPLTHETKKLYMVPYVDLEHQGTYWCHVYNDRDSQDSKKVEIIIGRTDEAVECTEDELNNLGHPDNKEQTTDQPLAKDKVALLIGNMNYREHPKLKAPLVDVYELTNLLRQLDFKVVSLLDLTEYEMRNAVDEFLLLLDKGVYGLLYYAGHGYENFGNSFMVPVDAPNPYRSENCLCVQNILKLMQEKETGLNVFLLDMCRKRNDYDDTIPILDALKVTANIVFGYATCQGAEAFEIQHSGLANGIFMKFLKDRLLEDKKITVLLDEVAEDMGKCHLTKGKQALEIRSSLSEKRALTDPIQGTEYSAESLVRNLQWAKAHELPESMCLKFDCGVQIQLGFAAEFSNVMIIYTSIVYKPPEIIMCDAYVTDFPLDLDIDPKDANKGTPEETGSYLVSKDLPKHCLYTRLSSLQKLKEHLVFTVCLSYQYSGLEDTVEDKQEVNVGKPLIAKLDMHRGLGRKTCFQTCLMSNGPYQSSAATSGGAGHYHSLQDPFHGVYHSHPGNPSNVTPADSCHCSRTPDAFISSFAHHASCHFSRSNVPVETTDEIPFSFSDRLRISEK
Briefly: MALT1 protease inhibition assay (AMC-labeled peptide, fluorescence 360/460). The settings on record: substrate Ac-LRSR-AMC, 15 min preincubation, 90 min at 25° C. The test is classed as biochemical. On the procedure: Test compounds of the present invention (in 100% DMSO) were spotted into a 384-well dilution plate and serially diluted to the required concentrations with DMSO. Then, 0.2 μL of the test compounds were transferred into a new 384-well reaction plate by Echo following centrifugation. The MALT enzyme and its substrate, AMC-labeled peptide, were prepared in 1× protease buffer to yield 2× enzyme solution and 2× peptide solution. Subsequently, 10 μL of 2× enzyme solution was added into the 384-well reaction plate, incubating with the test compounds for 15 minutes at 25° C. After that, 10 μL of 2× peptide solution was added into the plate, continuing to incubate for 90 minutes at 25° C. The plate was then placed on an Envision multifunctional microplate reader to collect raw data, which would be converted into inhibition rate:
Inhibition rate %=(max−sample)/(max−min)*100%. • “max” values were measured using the reaction with enzyme but no compound treated, while “min” values were generated from control wells containing assay buffer without enzyme.
Curve fitting was done with Graphpad Prism software to determine the IC50 values. The specific experimental operations are as follows:
58.82 g Na Citrate·2H2O powder was added into 140 mL ddH2O and mixed in a 37° C. water bath. Once there were no visible particles, the remaining solutions were added successively with continuous stirring for 10 minutes. The final volume was adjusted to 200 mL. The buffer was stored at room temperature. DTT was added before use.
• 1) All test compounds were diluted from 10 mM stock solution into 1 mM in a 384 well dilution plate (labcyte, PP-0200); • 2) Ten various concentrations of the diluted compound solution above were obtained by serial dilution at an equal ratio of 1:3; • 3) 0.2 μL DMSO was transferred to two empty wells of the 384 reaction plate as blank controls without compound and enzyme respectively; • 4) 0.2 μL of the test compound at different concentrations was also transferred into the 384 reaction plate by Echo, with two duplicate wells for each concentration, then the plate was centrifuged at 1000 rpm for 1 min.
• 1) The MALT1 protease and AMC-labeled peptide was prepared in 1× protease buffer to obtain 2× enzyme solution and 2× peptide solution. 10 μL of 2× enzyme solution was added into the 384-well reaction plate. The plate was centrifuged at 1000 rpm for 1 min and incubated for 15 min at 25° C. • 2) 10 μL of 2× peptide solution was then transferred to the 384 reaction plate, and the plate was centrifuged at 1000 rpm for 1 min and incubate for 90 min at 25° C.
The molecule “5-(2′-amino-5-chloro-2,4′- difluoro-[1,1′-biphenyl]-4- carboxamido)-3-chloro-N- (2,2-difluoro-2λ3- ethyl)picolinamide [Example A457]” yielded an IC50 of 10 to 100 nM.

With `C#Cc1cc(F)cnc1-c1cc(Cl)c(C(=O)Nc2ccnc(C(F)(F)F)c2)cc1F` [Example A324, 2-chloro-4-(3-ethyny1-5-fluoropyridin-2-y1)-5-fluoro-N-(2-(trifluoromethyl)pyridin-4-yl)benzamide], the IC50 is at most 10 nM.

Turning to `C#Cc1cnccc1-c1c(F)c(F)c(C(=O)Nc2cnc(-n3nccn3)c(Cl)c2)c(F)c1F` [Example A333, N-(5-chloro-6-(2H-1,2,3-triazol-2-yl)pyridin-3-y1)-4-(3-ethynylpyridin-4-y1)-2,3,5,6-tetrafluorobenzamide], the IC50 was at most 10 nM.

As for `C#Cc1cc(F)cnc1-c1cc(Cl)c(C(=O)Nc2cnc(-n3nccn3)c(Cl)c2)cc1F` [Example A335, 2-chloro-N-(5-chloro-6-(2H-1,2,3-triazol-2-yl)pyridin-3-y1)-4-(3-ethyny1-5-fluoropyridin-2-y1)-5-fluorobenzamide], the IC50 was at most 10 nM.

For `C#Cc1cnccc1-c1cc(Cl)c(C(=O)Nc2ccc(OC)c(Cl)c2)cc1F` [Example A338, 2-chloro-N-(3-chloro-4-methoxyphenyl)-4-(3-ethynylpyridin-4-y1)-5-fluorobenzamide], the IC50 was at most 10 nM.

As for `C=CC(=O)Nc1cnccc1-c1cc(Cl)c(C(=O)Nc2cnc(-n3nccn3)c(Cl)c2)cc1F` [Example A342, 4-(3-acrylamidopyridin-4-y1)-2-chloro-N-(5-chloro-6-(2H-1,2,3-triazol-2-y1)pyridin-3-y1)-5-fluorobenzamide], the IC50 is at most 10 nM.

Molecule `C=Cc1cnccc1-c1cc(Cl)c(C(=O)Nc2cnc(-n3nccn3)c(C(F)(F)F)c2)cc1F` [Example A346, N-(6-(2H-1,2,3-triazol-2-yl)-5-(trifluoromethyl)pyridin-3-yl)-2-chloro-5-fluoro-4-(3-vinylpyridin-4-y1)benzamide] registered an IC50 of at most 10 nM.

`C#Cc1cc(C(=O)Nc2cnc(-n3nccn3)c(Cl)c2)c(C)cc1-c1ccc(F)cc1N` [Example A409] returned an IC50 of at most 10 nM.

Take `C#Cc1cccc(Cl)c1-c1cc(Cl)c(C(=O)Nc2cnc(-n3nccn3)c(C(F)(F)F)c2)cc1F` [Example A413]: the IC50 was at most 10 nM.

In turn, `C#Cc1cc(C(=O)Nc2cnc(-n3nccn3)c(Cl)c2)c(C)cc1-c1ccc(F)cc1Cl` [Example A414, 2′-chloro-N-(5-chloro-6-(2H-1,2,3-triazol-2-yl)pyridin-3-yl)-2-ethynyl-4′-fluoro-5-methyl-[1,1′-biphenyl]-4-carboxamide] registered a 50% inhibitory concentration (IC50) of 10 to 100 nM.

Regarding `C#Cc1cc(F)ccc1-c1cc(C)c(C(=O)Nc2cnc(-n3nccn3)c(Cl)c2)cc1C#C` [Example A415], the IC50 was 10 to 100 nM.

Consider `C#Cc1cc(C(=O)Nc2cnc(-n3nccn3)c(Cl)c2)c(C)cc1-c1ccc(F)nc1N` [Example A416, 4-(2-amino-6-fluoropyridin-3-yl)-N-(5-chloro-6-(2H-1,2,3-triazol-2-yl)pyridin-3-yl)-5-ethynyl-2-methylbenzamide], for which the IC50 lay in the range of 100 to 500 nM.

For the molecule `C#Cc1cc(C(=O)Nc2cnc(-n3nccn3)c(Cl)c2)c(C)cc1-c1ccncc1OC` [Example A417, N-(5-chloro-6-(2H-1,2,3-triazol-2-yl)pyridin-3-yl)-5-ethynyl-4-(3-methoxypyridin-4-yl)-2-methylbenzamide], the IC50 fell in the range of 10 to 100 nM.

`Nc1cc(F)ccc1-c1cc(Cl)c(C(=O)Nc2cnc(-n3nccn3)c(Cl)c2)cc1C1=CCCCC1` [Example A418, 2-amino-5′-chloro-N-(5-chloro-6-(2H-1,2,3-triazol-2-yl)pyridin-3-yl)-4-fluoro-2″,3″,4″,5″-tetrahydro-[1,1′:2′,1″-terphenyl]-4′-carboxamide] displayed an IC50 of over 500 nM.

Molecule `Cc1cc(-c2ccc(F)cc2Cl)c(-c2ccccc2)cc1C(=O)Nc1cnc(-n2nccn2)c(Cl)c1` [Example A419, 2-chloro-N-(5-chloro-6-(2H-1,2,3-triazol-2-yl)pyridin-3-yl)-4-fluoro-5′-methyl-[1,1′:2′,1″-terphenyl]-4′-carboxamide] yielded an IC50 of over 500 nM.

In turn, `Cc1cc(-c2ccc(F)cc2N)c(C2=CCCC2)cc1C(=O)Nc1cnc(-n2nccn2)c(Cl)c1` [Example A420, 2′-amino-N-(5-chloro-6-(2H-1,2,3-triazol-2-yl)pyridin-3-yl)-2-(cyclopent-1-en-1-yl)-4′-fluoro-5-methyl-[1,1′-biphenyl]-4-carboxamide] yielded an IC50 of over 500 nM.

`Cc1cc(-c2ccc(F)cc2N)c(-c2ccccc2)cc1C(=O)Nc1cnc(-n2nccn2)c(Cl)c1` [Example A421, 2-amino-N-(5-chloro-6-(2H-1,2,3-triazol-2-yl)pyridin-3-yl)-4-fluoro-5′-methyl-[1,1′:2′,1″-terphenyl]-4′-carboxamide] displayed an IC50 of over 500 nM.

`C#Cc1cc(F)ccc1-c1cc(C)c(C(=O)Nc2cnc(-n3nccn3)c(Cl)c2)cc1-c1ccccc1` [Example A422, N-(5-chloro-6-(2H-1,2,3-triazol-2-yl)pyridin-3-yl)-2-ethynyl-4-fluoro-5′-methyl-[1,1′:2′,1″-terphenyl]-4′-carboxamide] had an IC50 of over 500 nM.

Consider `CC#Cc1cc(C(=O)Nc2cnc(-n3nccn3)c(Cl)c2)c(C)cc1-c1ccc(F)cc1N` [Example A423], for which the 50% inhibitory concentration (IC50) is 10 to 100 nM.

The molecule `C=Cc1cc(C(=O)Nc2cnc(-n3nccn3)c(Cl)c2)c(Cl)cc1-c1ccc(F)cc1N` [Example A424, 2′-amino-5-chloro-N-(5-chloro-6-(2H-1,2,3-triazol-2-yl)pyridin-3-yl)-4′-fluoro-2-vinyl-[1,1′-biphenyl]-4-carboxamide] yielded an IC50 of 10 to 100 nM.

Regarding `C=Cc1cc(C(=O)Nc2cnc(-n3nccn3)c(Cl)c2)c(C)cc1-c1ccc(F)cc1N` [Example A425], the IC50 lay within 10 to 100 nM.

The molecule `C#Cc1cnccc1-c1cc(Cl)c(C(=O)Nc2cnc(C(=O)NCCC)c(Cl)c2)cc1F` [Example A430, 3-chloro-5-(2-chloro-4-(3-ethynylpyridin-4-yl)-5-fluorobenzamido)-N-propylpicolinamide] gave an IC50 of at most 10 nM.

Take `C#Cc1cnccc1-c1cc(Cl)c(C(=O)Nc2cnc(C(=O)NCCOC(F)(F)F)c(Cl)c2)cc1F` [Example A431, 3-chloro-5-(2-chloro-4-(3-ethynylpyridin-4-yl)-5-fluorobenzamido)-N-(2-(trifluoromethoxy)ethyl) picolinamide]: the half-maximal inhibitory concentration (IC50) was in the range of 10 to 100 nM.

As to `C#Cc1cnccc1-c1cc(Cl)c(C(=O)Nc2cnc(C(=O)NCCc3ccccc3)c(Cl)c2)cc1F` [Example A432, 3-chloro-5-(2-chloro-4-(3-ethynylpyridin-4-yl)-5-fluorobenzamido)-N-phenethylpicolinamide], the IC50 lay in the range of 10 to 100 nM.

As to `C#Cc1cnccc1-c1cc(Cl)c(C(=O)Nc2cnc(C(=O)NCc3ccoc3)c(Cl)c2)cc1F` [Example A433, 3 3-chloro-5-(2-chloro-4-(3-ethynylpyridin-4-yl)-5-fluorobenzamido)-N-(furan-3-ylmethyl)picolinamide], the IC50 is 10 to 100 nM.

In turn, `C#Cc1cnccc1-c1cc(Cl)c(C(=O)Nc2cnc(C(=O)NCC(C)(C)C)c(Cl)c2)cc1F` [Example A434, 3-chloro-5-(2-chloro-4-(3-ethynylpyridin-4-yl)-5-fluorobenzamido)-N-neopentylpicolinamide] had an IC50 of 10 to 100 nM.
